The results in this text go back to patent publication US20260124281A1, “FORMULATIONS COMPRISING ACID-NEUTRALIZING POLYMER FOR ORAL ADMINISTRATION OF PARATHYROID HORMONE” (Entera Bio Ltd., priority 2022, published 2026).

Data set [1] can be described thus: pH upon addition of test substance to 0.1 M HCl solution (pH 1.2), pH meter. Format: physicochemical. The protocol: The solution pH was determined using an MP-103 pH-meter (MRC, Israel) equipped with ELC-10-00 electrode (MRC, Israel) or with a thin electrode HI1083 (HANNA instruments Inc.), shortly after dissolution and up to 26 hours later in order to ensure that the pH remained stable. The highest pH value obtained during the experimental time period was recorded in order to compare the acid-neutralizing capacity of each substance.
SNAC and the basic polymers sodium alginate, sodium carboxymethylcellulose in non-crosslinked (Na-CMC) and crosslinked (croscarmellose sodium, CCS) forms, and sodium starch glycolate (SSG) were dissolved in various volumes of 0.1 M HCl solution (pH 1.2) at concentrations of 1, 2, 4, 10, 20, 50, 100 and 150 mg/ml, and the solution pH was determined using an MP-103 pH-meter (MRC, Israel) equipped with ELC-10-00 electrode (MRC, Israel), as described in the Materials and Methods section hereinabove.
In order to obtain a beneficial rise in pH with a reduced loss of the active form of the absorption enhancer, the effect of various concentrations of different polymers containing carboxylate groups (sodium alginate, sodium starch glycolate, sodium carboxymethylcellulose, and croscarmellose sodium) on pH upon addition to a 0.1 M HCl solution (pH 1.2) was also evaluated. FIG. 3A presents pH values determined using an MP-103 pH-meter (MRC, Israel) equipped with ELC-10-00 electrode (MRC, Israel) and FIG. 3B presents pH values determined using an MP-103 pH-meter (MRC, Israel) equipped with a thin electrode HI1083 (HANNA instruments Inc.).

In the next data set the test system is pepsin. In words: Proteolysis of hPTH(1-34) by pepsin at various pH values. Format: in vitro ADME. Particulars: 13.5 μg/ml hPTH(1-34), 150 μg/ml pepsin, 37° C., media pH 2-7. As to the method: The effect of pH on peptide proteolysis by pepsin was determined by incubating 13.5 μg/ml human parathyroid hormone (1-34) (hPTH(1-34)) with 150 μg/ml pepsin, at various pH values, and determining the percentage of hPTH(1-34) which remained. The amount of hPTH(1-34) remaining upon addition to 150 μg/ml pepsin at 37° C., was determined in media with different pH values, followed by immediate (10 second) vortex and centrifugation for 3 minutes at 4° C., 4000 RCF. The following media were used: simulated gastric fluid (pH 2), prepared from 0.01 M HCl and NaCl; phthalate buffer (pH 4 or 5); and phosphate buffer (pH 6 or 7).

Each structure is given as a SMILES string.

Regarding `O=C(O)CCCCCCCNC(=O)c1ccccc1O` [SNAC, sodium 8-N-(2-hydroxybenzoyl)aminocaprylate], the “pH 5 minutes after dissolution” value in data set [1] (10 mg/ml SNAC added to HCl solution (pH 1.2)) is reported as “about 1.5”; in data set [1] (20 mg/ml SNAC added to HCl solution (pH 1.2)) it was 6.5; in data set [1] (100 mg/ml SNAC added to HCl solution (pH 1.2)) it was “about 7.5”. Besides, the “dissolution upon addition to HCl solution” value in data set [1] (HCl solution (pH 1.2)) is given as “dissolved rapidly”.
Take `CC[C@H](C)[C@H](NC(=O)[C@H](CCC(=O)O)NC(=O)[C@H](CO)NC(=O)[C@@H](NC(=O)[C@@H](N)CO)C(C)C)C(=O)N[C@@H](CCC(N)=O)C(=O)N[C@@H](CC(C)C)C(=O)N[C@@H](CCSC)C(=O)N[C@@H](Cc1cnc[nH]1)C(=O)N[C@@H](CC(N)=O)C(=O)N[C@@H](CC(C)C)C(=O)NCC(=O)N[C@@H](CCCCN)C(=O)N[C@@H](Cc1cnc[nH]1)C(=O)N[C@@H](CC(C)C)C(=O)N[C@@H](CC(N)=O)C(=O)N[C@@H](CO)C(=O)N[C@@H](CCSC)C(=O)N[C@@H](CCC(=O)O)C(=O)N[C@@H](CCCN=C(N)N)C(=O)N[C@H](C(=O)N[C@@H](CCC(=O)O)C(=O)N[C@@H](Cc1c[nH]c2ccccc12)C(=O)N[C@@H](CC(C)C)C(=O)N[C@@H](CCCN=C(N)N)C(=O)N[C@@H](CCCCN)C(=O)N[C@@H](CCCCN)C(=O)N[C@@H](CC(C)C)C(=O)N[C@@H](CCC(N)=O)C(=O)N[C@@H](CC(=O)O)C(=O)N[C@H](C(=O)N[C@@H](Cc1cnc[nH]1)C(=O)N[C@@H](CC(N)=O)C(=O)N[C@@H](Cc1ccccc1)C(=O)O)C(C)C)C(C)C` [hPTH(1-34), teriparatide]: the “pH at which proteolysis of hPTH(1-34) by pepsin was inhibited” value in the data set with pepsin was not below 6.
